Where a name gives a salt, the structure may show the parent alone.

This assay deals with T1, MDR (Rattus norvegicus, UniProt P16257).
T1 construct: Crude mitochondria fractions prepared from rat cerebral cortex were used as a receptor sample; from tissue; host or cells: rat cerebral cortex, crude mitochondria fraction
Description: MDR receptor binding assay ([3H]PK11195 displacement). The settings on record: 50% inhibition of [3H]PK11195 (2 nM) binding; crude mitochondria fraction from rat cerebral cortex; 4° C., 90 minutes. The procedure:
Experiment [MDR Receptor Binding Assay]
Crude mitochondria fractions prepared from rat cerebral cortex were used as a receptor sample, and [^3H]PK11195 was used as a [^3H]-labeled ligand.
A binding assay using the [^3H]-labeled ligand was carried out according to the following method as described in Journal of Pharmacology and Experimental Therapeutics, 262, 971(1992).
Preparation of Receptor Sample: Rat cerebral cortex was homogenized using a Teflon-coated homogenizer in a 10 mM HEPES buffer (pH 7.4) containing 0.32 M sucrose in ten volumes of the wet weight. The homogenate was centrifuged at 900×g for 10 minutes, and the resulting supernatant was centrifuged at 9,000×g for 10 minutes. The precipitate was suspended in a HEPES buffer to give a protein concentration of 1 mg/ml, and centrifuged at 12,000×g for 10 minutes. The resulting precipitate was suspended in a 50 mM HEPES buffer (pH 7.4) to give a crude mitochondria fraction.
MDR Binding Assay: Mitochondria sample (1.0 mg protein/ml), [^3H]PK11195 (2 nM) and the test drug were reacted at 4° C. for 90 minutes. After completion of the reaction, the reaction mixture was filtered with suction through a glass filter (GF/B) treated with 0.3% polyethyleneimine, and the radioactivity on the filter was measured by a liquid scintillation spectrometer.
The binding at the reaction in the presence of 10 μM PK11195 was defined as non-specific binding of [3H]PK11195, and the difference between total binding and non-specific binding was defined as specific binding.
By IC50 is commonly meant the concentration needed to halve the response being measured. Low readings indicate greater potency in that assay, high ones weaker potency in that assay. In turn, `COc1ccccc1CN(C(=O)c1ccccc1)c1ccccc1Oc1ccccc1` [Compound 079] yielded an IC50 of 4.64 nM.
Turning to `COc1ccccc1CN(C(=O)CCl)c1ccccc1Oc1ccccc1` [Compound 081, N-chloroacetyl-N-(2-methoxybenzyl)-2-phenoxyaniline], the IC50 is 0.343 nM.
Then `CCCOc1ccccc1CN(C(=O)CC)c1ccc(Cl)cc1Oc1ccccc1` [Compound 067], with 1.08 nM.
`CNC(=O)N(Cc1ccccc1OC(C)C)c1ccccc1Oc1ccccc1` [Compound 093] returned an IC50 of 0.87 nM.
In the case of `COc1cc(CN(C(C)=O)c2ccccc2Oc2ccccc2)cc(OC)c1` [Compound 025], the IC50 was 0.26 nM.
With `CNC(=O)N(Cc1cc(OC)ccc1OC)c1ccccc1Oc1ccccc1` [Compound 095, N-(2,5-Dimethoxybenzyl)-N-(N-methylaminocarbonyl)-2-phenoxyaniline], the IC50 was 3.77 nM.
In the case of `COc1ccccc1CN(C(C)=O)c1c(F)cccc1Oc1ccccc1` [Compound 118] it was 0.498 nM.
As for `COc1ccccc1CN(C(C)=O)c1ccccc1Oc1ccc(F)cc1` [Compound 109], the IC50 came to 0.285 nM.
In the case of `CNC(=O)N(Cc1ccccc1OC)c1ccccc1Oc1ccccc1` [Compound 090, N-(2-Methoxybenzyl)-N-(N-methylaminocarbonyl)-2-phenoxyaniline] it was 4.64 nM.
`CCOc1ccccc1CN(C(C)=O)c1ccc(Cl)cc1Oc1ccccc1` [Compound 004] displayed an IC50 of 0.791 nM.
In the case of `COc1ccccc1CN(C(C)=O)c1ccc(F)cc1Oc1ccccc1` [Compound 116] it was 0.343 nM; in that of `COc1ccccc1CN(C(=O)C(C)C)c1ccccc1Oc1ccccc1` [Compound 072], 3.51 nM.
Then `CC(=O)N(Cc1ccccc1Cl)c1ccccc1Oc1ccccc1` [Compound 029, N-Acetyl-N-(2-chlorobenzyl)-2-phenoxyaniline], with 0.486 nM; and `CSc1ccccc1CN(C(C)=O)c1ccccc1Oc1ccccc1` [Compound 034], with 0.179 nM; and `CC(=O)N(Cc1ccccc1OCCC(C)C)c1ccccc1Oc1ccccc1` [Compound 011], with 0.163 nM.
Then `CCC(=O)N(Cc1ccccc1OC)c1ccccc1Oc1ccccc1` [Compound 064], with 0.0933 nM; and `COC(=O)N(Cc1ccccc1OC)c1ccccc1Oc1ccccc1` [Compound 098, N-(2-Methoxybenzyl)-N-methoxycarbonyl-2-phenoxyaniline], with 0.498 nM.
Consider `CCCCCOc1ccccc1CN(C(C)=O)c1ccccc1Oc1ccccc1` [Compound 010], for which the IC50 came to 0.149 nM.
Regarding `COc1ccccc1CN(C(=O)CO)c1ccccc1Oc1ccccc1` [Compound 085, N-Hydroxyacetyl-N-(2-methoxybenzyl)-2-phenoxyaniline], the IC50 was 3.85 nM.
Take `CC(=O)N(Cc1ccccc1)c1ccccc1Oc1ccccc1` [Compound 056]: the IC50 stood at 2.92 nM.
For the compound `COc1ccc(OC)c(CN(C(C)=O)c2cc(Cl)ccc2Oc2ccccc2)c1` [Compound 023], the IC50 was 0.424 nM.
`CC(=O)N(Cc1ccc(N(C)C)cc1)c1ccccc1Oc1ccccc1` [Compound 055] came in with an IC50 of 1.83 nM.
In the case of `COc1ccc(Oc2ccccc2N(Cc2ccccc2OC)C(C)=O)cc1` [Compound 105], the IC50 was found to be 0.163 nM.
Then `COc1ccccc1CN(C(=O)COC(C)=O)c1ccccc1Oc1ccccc1` [Compound 082, N-acetoxyacetyl-N-(2-methoxybenzyl)-2-phenoxyaniline], with 8.9 nM.
Then `COc1ccccc1CN(C(C)=O)c1cc(C)ccc1Oc1ccccc1` [Compound 124], with 0.343 nM.
Then `COc1cccc(CN(C(C)=O)c2ccccc2Oc2ccccc2)c1OC` [Compound 015], with 0.285 nM.
As to `CC(=O)N(Cc1ccccc1OCC(C)C)c1ccccc1Oc1ccccc1` [Compound 009], the IC50 was 0.112 nM.
The compound `CCOC(=O)N(Cc1ccccc1OC)c1ccccc1Oc1ccccc1` [Compound 099] returned an IC50 of 0.87 nM.
For the compound `CCOc1ccccc1CN(C(C)=O)c1ccccc1Oc1ccccc1` [Compound 003], the IC50 came out at 0.123 nM.
For the compound `COc1ccccc1CN(C=O)c1ccccc1Oc1ccccc1` [Compound 087], the IC50 was found to be 0.572 nM.
In the case of `COc1ccc(OC)c(CN(C(C)=O)c2ccccc2Oc2ccccc2)c1` [Compound 017] it was 0.085 nM; in that of `COc1ccccc1CCN(C(C)=O)c1ccccc1Oc1ccccc1` [Compound 012, N-Acetyl-N-[2-(2-methoxyphenyl)ethyl]-2-phenoxyaniline], 0.453 nM.
In the case of `C=Cc1ccccc1CN(C(C)=O)c1ccccc1Oc1ccccc1` [Compound 051] it was 0.196 nM.
`CC(=O)N(Cc1ccccc1Br)c1ccccc1Oc1ccccc1` [Compound 033] yielded an IC50 of 3.51 nM.
In turn, `COc1cccc(Oc2ccccc2N(Cc2ccccc2OC)C(C)=O)c1` [Compound 104] registered an IC50 of 0.343 nM.
Then `COc1ccccc1CN(C(C)=O)c1ccc(Oc2ccccc2)cc1Oc1ccccc1` [Compound 127], with 3.51 nM.
Turning to `CC(=O)N(Cc1ccccc1[N+](=O)[O-])c1ccccc1Oc1ccccc1` [Compound 052, N-acetyl-N-(2-nitrobenzyl)-2-phenoxyaniline], the IC50 came out at 4.64 nM.
In the case of `COc1ccccc1CN(C(C)=O)c1ccccc1Oc1ccc(F)cc1F` [Compound 112] it was 0.376 nM; in that of `COc1ccccc1CN(C(N)=O)c1ccccc1Oc1ccccc1` [Compound 089, N-Aminocarbonyl-N-(2-methoxybenzyl)-2-phenoxyaniline], 3.51 nM.
Take `CC(=O)N(Cc1ccc(Cl)cc1)c1ccccc1Oc1ccccc1` [Compound 031]: the IC50 amounted to 1.23 nM.
Then `COc1cccc(CN(C(C)=O)c2ccccc2Oc2ccccc2)c1` [Compound 001], with 1.38 nM.
`COC(=O)c1ccccc1CN(C(C)=O)c1ccccc1Oc1ccccc1` [Compound 040, N-acetyl-N-(2-methoxycarbonylbenzyl)-2-phenoxyaniline] had an IC50 of 0.0643 nM.
Compound `COc1ccc(OC)c(CN(C(C)=O)c2cc(F)ccc2Oc2ccccc2)c1` [Compound 021] yielded an IC50 of 0.31 nM.
In the case of `COc1ccc(OC)c(CN(C(C)=O)c2cc(C)ccc2Oc2ccccc2)c1` [Compound 019] it was 0.196 nM; in that of `COc1ccccc1CN(C(C)=O)c1cc(F)ccc1Oc1ccccc1` [Compound 117], 0.792 nM.
For `CCCCC(=O)N(Cc1ccccc1OC)c1ccccc1Oc1ccccc1` [Compound 073], the IC50 was 1.52 nM.
In the case of `COc1ccccc1CN(C(C)=O)c1ccccc1Oc1ccccc1OC` [Compound 103] it was 0.722 nM.
Then `COc1ccccc1CN(C(=O)C(F)(F)F)c1ccccc1Oc1ccccc1` [Compound 080], with 4.64 nM; and `CC(=O)N(Cc1ccccc1OC(C)C)c1ccc(Cl)cc1Oc1ccccc1` [Compound 008], with 0.87 nM.
Then `COc1ncccc1CN(C(C)=O)c1ccccc1Oc1ccccc1` [Compound 061], with 0.498 nM; and `CCOc1ccccc1CN(C=O)c1ccccc1Oc1ccccc1` [Compound 088], with 0.163 nM.
The compound `COc1ccncc1CN(C(C)=O)c1ccccc1Oc1ccccc1` [Compound 062] gave an IC50 of 1.05 nM.
Then `COc1ccccc1C(C)N(C(C)=O)c1ccccc1Oc1ccccc1` (centres unmarked) [Compound 014], with 2.21 nM; and `CCCCCC(=O)N(Cc1ccccc1OC)c1ccccc1Oc1ccccc1` [Compound 075], with 1.83 nM; and `COc1ccc(CN(C(C)=O)c2ccccc2Oc2ccccc2)c(OC)c1` [Compound 016, N-Acetyl-N-(2,4-dimethoxybenzyl)-2-phenoxyaniline], with 0.722 nM.
Then `CCOc1ccccc1CN(C(=O)CC)c1ccc(Cl)cc1Oc1ccccc1` [Compound 066], with 0.925 nM; and `COc1ccc(Oc2ccccc2)c(N(Cc2ccccc2OC)C(C)=O)c1` [Compound 126], with 8.11 nM; and `COc1ccc(CN(C(C)=O)c2ccccc2Oc2ccccc2)cc1` [Compound 002], with 0.658 nM.
Then `CC(=O)N(Cc1cccc(Cl)c1)c1ccccc1Oc1ccccc1` [Compound 030], with 1.96 nM.
With `CCCc1ccccc1CN(C(C)=O)c1ccccc1Oc1ccccc1` [Compound 050, N-Acetyl-N-(2-propylbenzyl)-2-phenoxyaniline], the IC50 turned out to be 0.215 nM.
`CCCOc1ccccc1CN(C(=O)NC)c1ccccc1Oc1ccccc1` [Compound 092] came in with an IC50 of 0.722 nM.
In the case of `COc1ccccc1CN(C(C)=O)c1ccccc1Oc1cccc(C)c1` [Compound 101], the IC50 was found to be 0.285 nM.
In turn, `CCCOc1ccccc1CN(C(C)=O)c1ccccc1Oc1ccccc1` [Compound 005] showed an IC50 of 0.118 nM.
Turning to `CC(=O)N(Cc1ccccc1N1CCCC1)c1ccccc1Oc1ccccc1` [Compound 054, N-Acetyl-N-(2-pyrrolidinobenzyl)-2-phenoxyaniline monohydrochloride], the IC50 came to 1.26 nM.
In turn, `CC(=O)c1ccccc1CN(C(C)=O)c1ccccc1Oc1ccccc1` [Compound 047, N-Acetyl-N-(2-acetylbenzyl)-2-phenoxyaniline] showed an IC50 of 0.265 nM.
